Key:
LFA-1 [1] = target: T1, LFA-1 (Homo sapiens, UniProt P05107+P20701); experiment: Co-culture assay with Blinatumomab, LFA-1 head-piece opening on PHA-blasts; assay type: cell-based; settings: 30 min co-culture with Ramos cells; Blinatumomab 300 pg ml^−1; ±Mg^2+
T1 construct: endogenous in cells; host or cells: primary human T cells from healthy donors: PHA-induced T cell blasts, sorted EM and naive CD8 T cells, and NY-ESO-1 TCR-transduced REP T cells
Protocol: FIG. 3: Magnesium regulates LFA-1 mediated T cell activation and cytotoxicity as well BiTE- and CAR T-cell functionality. (a) Glycolytic switch of murine WT and LFA-1^−/− CTLs upon injection of anti-CD3/28 Ab in medium containing 1.2 mM Mg^2+ and 0 mM Mg^2+, presented as quantification of summarized data with n=4 mice. (b) Calcium flux in WT and LFA-1^−/− Jurkat T cells stimulated with anti-CD3 Ab in 1.2 mM and 0 mM Mg^2+ medium, respectively. Cells were loaded with Fluo4, and signal intensity as recorded by plate reader, was normalized to unstimulated baseline values. […] Quantified results of n=3 mice with 3 technical replicates each. […] Results are quantified of n=3 mice with 3 technical replicates each. (e) Representative CD11a (LFA-1) surface expression on human naïve and EM CD8 T cells, PHA T cell blasts and REP T cells, assessed by flow cytometry. […] Data is presented as quantified results of n=5 healthy donors (f, g, h), n=3 healthy donors with 2 technical replicates each or n=1 healthy donor with 4 technical replicates (j). […] Data is presented as quantified results of n=1 healthy donor with 4 technical replicates. […] Cytotoxicity is reported as total area under the curve of the fluorescence driven by incorporation of cytotoxic green reagent in dead target cells (green area per μm^2). […]

LFA-1 [2] = target: T1, LFA-1; experiment: Flow cytometry of LFA-1 conformations on PHA T cell blasts; assay type: cell-based
Protocol: Glycolytic switch of human EM CD8 T cells (a) and naïve CD8 T cells (b) subsets upon injection of anti-CD3 Ab only, or anti-CD3 and anti-CD28 Ab, was assessed by metabolic flux analysis in medium containing either 1.2 mM Mg^2+, 0 mM Mg^2+, or medium which was reconstituted from 0 mM to 1.2 mM Mg^2+ immediately prior to activation (0→1.2 mM Mg^2+). (a) Results for human effector memory (EM) and (b) for human naïve CD8 T cells. Glycolytic switch was quantified by subtracting […] measurements. (c) Flow cytometric analysis of surface activation markers on human EM CD8 T cells 24 hours after activation by plate-bound anti-CD3 Ab and soluble anti-CD28 Ab, in 1.2 mM and 0 mM Mg^2+ media, respectively. (d) Abundance of inflammatory cytokines in corresponding EM CD8 T cell culture supernatants, determined by CBA. (e) CD11a (LFA-1) surface expression on human naïve and EM CD8 T cells as well PHA T cell blasts. Flow cytometry-based assessment of total LFA-1 expression assessed by mAb TS2/4 (f), closed conformation of αL by mAb HI111 (g), extended conformation of LFA-1 by mAb Kim127 (h), open head-piece conformation of LFA-1 by mAb m24 (i), phosphorylation of focal adhesion kinase (FAK) […] as well TNF expression (k)±TCR-induced activation in different extracellular Mg^2+ concentrations. (l) Flow cytometry-based assessment of LFA-1 with open-head piece conformation on human EM and naïve CD8 T cells using the open head-piece reporter mAb m24. (m) Assessment of glycolytic switch of EM CD8 T cells. (n) Assessment of glycolytic switch of naïve CD8 T cells. […] Naïve CD8 T cells were activated with in house generated anti-CD3/anti-CD28 coated microbeads. Polybead microspheres ([…], Polyscience […]) were incubated with 1 μg anti-CD3 Ab and 10 μg anti-CD28 Ab. […] Primary human T cells were activated for 24 h and PHA-blasts for 4 h. For evaluation of activation induced LFA-1 head-piece opening, T cells were activated for […] and anti-human CD11a/CD18 (clone m24) was directly added in medium and incubated on ice for 20 min. Cells were then washed twice in FACS Buffer and fixed in 2% PFA, incubated at room temperature for 20 min and washed with FACS Buffer before acquisition. […] For stainings with HI111, the cells were activated for 45 min, fixed with 2% PFA and subsequently stained with HI111 and washed with FACS Buffer before acquisition.

[3] = PHA T cell blasts ±TCR-induced activation, different extracellular Mg^2+ concentrations

T1 sequence (P20701 26-1170): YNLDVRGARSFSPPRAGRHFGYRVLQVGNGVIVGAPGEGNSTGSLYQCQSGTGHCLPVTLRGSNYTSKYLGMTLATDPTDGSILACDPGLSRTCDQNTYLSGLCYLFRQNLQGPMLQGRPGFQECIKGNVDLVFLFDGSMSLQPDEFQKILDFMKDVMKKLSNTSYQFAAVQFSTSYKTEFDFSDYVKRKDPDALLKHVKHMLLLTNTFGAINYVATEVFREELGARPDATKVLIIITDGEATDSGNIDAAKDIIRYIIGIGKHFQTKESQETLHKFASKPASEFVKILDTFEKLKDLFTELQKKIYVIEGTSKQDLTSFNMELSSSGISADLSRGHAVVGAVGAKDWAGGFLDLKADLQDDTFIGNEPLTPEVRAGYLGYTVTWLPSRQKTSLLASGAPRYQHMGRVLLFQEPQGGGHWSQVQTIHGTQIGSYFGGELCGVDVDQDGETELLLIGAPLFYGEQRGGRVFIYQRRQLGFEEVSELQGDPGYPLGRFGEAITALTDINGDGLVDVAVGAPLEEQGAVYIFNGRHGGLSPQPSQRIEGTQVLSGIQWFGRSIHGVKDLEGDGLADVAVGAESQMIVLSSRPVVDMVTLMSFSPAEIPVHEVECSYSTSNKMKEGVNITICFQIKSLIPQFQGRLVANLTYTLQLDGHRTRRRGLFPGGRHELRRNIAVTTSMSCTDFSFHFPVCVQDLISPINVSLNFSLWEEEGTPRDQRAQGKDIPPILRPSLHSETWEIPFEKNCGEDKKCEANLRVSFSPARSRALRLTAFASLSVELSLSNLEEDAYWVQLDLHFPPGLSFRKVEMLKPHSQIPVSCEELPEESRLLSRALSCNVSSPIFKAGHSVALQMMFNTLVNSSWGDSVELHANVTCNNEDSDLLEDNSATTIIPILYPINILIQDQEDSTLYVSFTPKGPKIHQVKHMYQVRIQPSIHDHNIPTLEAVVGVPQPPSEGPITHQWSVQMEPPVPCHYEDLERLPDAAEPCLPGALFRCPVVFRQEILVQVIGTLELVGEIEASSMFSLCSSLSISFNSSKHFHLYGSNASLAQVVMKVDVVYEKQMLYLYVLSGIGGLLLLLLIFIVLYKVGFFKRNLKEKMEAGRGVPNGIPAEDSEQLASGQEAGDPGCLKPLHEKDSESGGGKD
T1 sequence (P05107 23-769): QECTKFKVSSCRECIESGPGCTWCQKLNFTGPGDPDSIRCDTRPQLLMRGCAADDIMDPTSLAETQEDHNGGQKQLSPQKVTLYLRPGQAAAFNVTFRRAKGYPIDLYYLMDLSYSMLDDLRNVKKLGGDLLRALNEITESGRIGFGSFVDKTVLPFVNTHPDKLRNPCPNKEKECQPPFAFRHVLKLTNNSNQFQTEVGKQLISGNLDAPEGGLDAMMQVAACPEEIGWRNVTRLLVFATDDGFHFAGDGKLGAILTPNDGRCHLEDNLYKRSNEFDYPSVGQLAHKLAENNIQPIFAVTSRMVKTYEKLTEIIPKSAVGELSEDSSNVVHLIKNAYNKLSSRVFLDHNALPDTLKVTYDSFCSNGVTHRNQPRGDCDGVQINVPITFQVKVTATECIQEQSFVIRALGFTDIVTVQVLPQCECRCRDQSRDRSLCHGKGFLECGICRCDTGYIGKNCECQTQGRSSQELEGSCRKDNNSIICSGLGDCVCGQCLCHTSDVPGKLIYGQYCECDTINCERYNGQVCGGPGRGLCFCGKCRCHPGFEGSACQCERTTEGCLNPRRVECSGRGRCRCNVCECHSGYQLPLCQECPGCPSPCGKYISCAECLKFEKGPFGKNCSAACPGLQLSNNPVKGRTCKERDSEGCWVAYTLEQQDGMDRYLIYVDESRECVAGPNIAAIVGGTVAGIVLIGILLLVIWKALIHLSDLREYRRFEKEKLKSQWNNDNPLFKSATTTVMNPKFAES

Question: For `[Mg+2]` [Mg^2+, Magnesium], which “Activation-induced LFA-1 head-piece opening on PHA-blasts” value (LFA-1 [1]) is on record?
Answer: Mg^2+-dependent

Question: And the “Extended conformation of LFA-1 (mAb KIM127)” value (LFA-1 [2]; PHA T cell blasts upon T-cell activation, increasing extracellular Mg^2+ concentrations)?
Answer: dose-dependent KIM127 signal increase

Question: And the “Inactive/bent LFA-1 conformation (mAb HI111)” value (LFA-1 [2]; PHA T cell blasts upon TCR stimulation, decreasing extracellular Mg^2+ concentrations)?
Answer: higher levels of inactive LFA-1

Question: What about the “Open head-piece conformation of LFA-1 (mAb m24)” value (LFA-1 [2]; [3]) of the same compound?
Answer: strongly depending on extracellular Mg^2+ concentration

Question: What about the “Total LFA-1 expression (mAb TS2/4 epitope)” value (LFA-1 [2]; [3]) of the same compound?
Answer: independent on the extracellular Mg^2+ concentration

Question: What about the “LFA-1 activation in unstimulated T cells” value (LFA-1 [2]; ±Mg^2+, data not shown) of the same compound?
Answer: did not differ

Reference: patent publication US20240010726A1, “LFA-1 SIGNALLING MEDIATOR FOR USE IN CANCER THERAPY” (Universität Basel, priority 2020, published 2024)
